These results are taken from patent publication US7253177B2, “Synthesis and antimalarial activity of pyrrolo[3,2-f]quinazoline-1,3-diamine derivatives” (United States of America as Represented by the Secretary of …, priority 2004, dated 2007).

For orientation: IC50 means the concentration needed to halve the response being measured.

Data set [1] relates to Plasmodium falciparum D-6 clone (CDC Sierra Leone I). Put plainly: In vitro antimalarial study, [3H]hypoxanthine uptake, D-6 clone. The data set is classed as cell-based. As to the method: B. Antimalarial Activities: (a). In Vitro Antimalarial Studies. The in vitro assays were conducted by using a modification of the semiautomated microdilution technique of Desjardins et al and Chulay et al.. Four P. falciparum malaria parasite clones, from CDC Indochina III (W-2), CDC Sierra Leone I (D-6), Southeast Asia Isolates (TM91C235) and RCS (Isolates from Brazil) were utilized in susceptibility testing. They were derived by direct visualization and micromanipulation from patient isolates. The W-2 clone is susceptible to mefloquine but resistant to chloroquine, sulfadoxine, pyrimethamine, and quinine, whereas the D-6 clone is naturally resistant to mefloquine but susceptible to chloroquine, sulfadoxine, pyrimethamine and quinine. Test compounds were initially dissolved in DMSO and diluted 400 fold in RPMI 1640 culture medium supplemented with 25 mM Hepes, 32 mM NaHCO3 and 10% Albumax I (Gibco BRL, Grand Island, N.Y.). These solutions were subsequently serially diluted two-fold with a Biomek 1000 (Beckman, Fullerton, Calif.) over 11 different concentrations. The parasites were exposed to serial dilutions of each compound for 48 hrs and incubated at 37° C. with 5% O2, 5% CO2 and 90% N2 prior to the addition of [^3H]hypoxanthine. After a further incubation of 18 hrs, parasite DNA was harvested from each microtiter well using Packard Filtermate 196 Harvester (Meriden, Conn.) onto glass filters. Uptake of [^3H]hypoxanthine was measured with a Packard Topcount Scintillation. Concentration-response data were analyzed by a non-linear regression logistic dose response model and the IC50 values (50% inhibitory concentrations) for each compound were calculated. (Table 3). (b). In Vivo Antimalarial Studies against P. berghei in mice: The in vivo efficacy of the artelinic acid analogs were determined in a modified Thompson test. This test measures the survivability of mice and parasitemia clearance following administration of drug on days 3-5 post infection. In brief, 5×10^6 P. berghei-infected erythrocytes (KBG-173 strain) were inoculated intraperitoneally to female mice that weighed 24-30 g. By day three post-infection, parasitemia ranged from 1.0-3.7%. Each drug, dissolved in 5% sodium bicarbonate, was administered PO twice daily from day 3-5 post-infection. Total doses for each drug ranged from 1.5-384 mg/kg with 8 mice included in each dosage group. The percent suppression of parasitemia in the treated mice compared to the untreated controls was determined for each test compound; the SD-50 (fifty percent suppression dose) and SD-90 were determined from a non-linear regression logistic dose response fit at day 6 parasitemia data. Survival of mice to day 60 post-infection was considered a cure (C). Compounds were considered active (A) when the survival time of the treated mice was greater than twice the control mice, i.e., 12-14 day (Table 4-5). (c). Sporozoite Induced Test Each compound is ground with a mortar & pestle and suspended in 0.5% hydroxyethylcellulose—0.1% Tween 80 for compounds to be administered PO and those given SC are suspended in peanut oil. Each compound is prepared at 3 different dose levels as requested by WRAIR. Compounds are administered either PO or SC to mice once 4 hr before inoculation of sporozoites. Four-week-old male CD-1 mice, purchased from Charles River and weighing 16-17 g, are placed 5 per cage and allowed to acclimate for 4 days before being treated and then inoculated with sporozoites. They are fed food and water ad-lib and maintained at 76° F. with 12 hr light and 12 hr darkness. The cages and water bottles are changed biweekly. The mice are weighed on Days 0, 3 and 6 then biweekly when blood films are taken. Plasmodium yoelii (17×) is used to infect mice that will be used to infect the mosquitoes. Mice are given a single dose of test compound 4 hr before being inoculated intraperitoneally with 2.5×10^5 sporozoites of Plasmodium yoelii on Day 0. […]

Data set [2] is described as follows: Toxicity study in Aotus monkey. The data set is classed as in vivo. To be noted: for CBC parameters / body weight change / adverse effects (anorexia, vomiting, diarrhea, behavior): single oral 3 mg/kg; for adverse effects (anorexia, vomiting, diarrhea, behavior): 28 day observation period; for behavior, weight or blood chemistry changes: single oral dose 3 mg/kg. As to the method: (e). Toxicity Study in Aotus monkey: Protocol: Two malaria double cured Aotus weighing 1027-695 grams respectively received single dose of 3 mg/kg orally of the two compounds 2b and 3e. The monkeys were weighed and pre-bleed for CBC and Chemistry (ALT, BUN, Creatinine) determination, and again three, seven and 15 days post treatment. Signs of toxicity such as anorexia, vomiting, diarrhea or behavior changes were recorded. […] (f). Antimalarial Activity against P. falciparum in Aotus monkey: Protocol: Six (6) malaria naive Aotus lemurinus lemurinus (weigh 787-978 grms) were divided into two groups of two Aotus each plus two controls (MN13177 male and MN 13153 male) and infected with 5×10^6 P. falciparum FVO malaria parasites with 1 ml of an appropriate dilution in RPMI media intravenously on the saphenous vein. When their parasitemia reached 5×10^4 parasites/ul, treatment was started. Giemsa-stained thick blood smears were prepared daily with a prick in the ear marginal vein and parasites enumerated by the Earle and Perez method. Group 1 Aotus received 3e at 1 mg/kg once a day×three days. Group 2 Aotus received 2b at 1 mg/kg once a day×three days. The monkeys were weight and pre-bled for CBC and Chemistry (ALT, BUN, Creatinine) determination, and on day 4 post-treatmetne (PT). Bleedings for Pk determinations were carried out on day 1 PT at time 0, 1 hr, 7:30 hr and 24 hr PT. Group 1 (receiving 3e) animals cleared the parasitemias on day 3 post treatment (PT) and remained negative up to 100 days PT. In group 2 (receiving 2b), one animal cleared on day 3 PT and the other one on day 4 PT remaining negative up to 100 days PT. […] (g). Antimalarial Activity against P. vivax in Aotus monkey: Protocol: Fourteen (14) P. falciparum cured Aotus l. lemurinus monkeys (male and female) (weight 700-925 grms) were infected intravenously with 5×10^6 parasites of the P. vivax AMRU-1 strain diluted in RPMI media obtained from a donor and divided into two larger groups of 6 monkeys each (Group I and Group II) (2 monkeys per dose level), that received 3e and 6 monkeys (2 monkeys per dose level) that received 2b daily at 0.5, 1.0 and 3 mg/kg/day for a total of 3 days. Two monkeys were left has untreated controls. Treatment started when parasitemia reached 5,000 parasites×cc/mm on day 6 PI. Daily food intake was documented. Daily Giemsa-stained thick blood smears were prepared from a prick in the marginal ear vein and parasites enumerated by the Earle and Perez method. The animals were weighed at weekly intervals. Blood samples for Pk determination were collected at the following time points as follows: Day 0: CBC and chemistry panel (ALT. Creatinine and BUN); Day 4: CBC and chemistry Panel. CBC and chemistry panels were done the day prior to first dose and 24 hours after last dose and at weekly intervals thereafter. […] The other monkeys received 1 and 3 mg/kg of 3e remained negative until day 100 PT. In Group II, all monkeys except for one that received 3 mg/kg of 2b failed treatment and were retreated on day 3 PT with 3e at either 0.25, 0.5 or 1 mg/kg for three days. In the monkeys that received re-treatment at 0.25 mg/kg, one cleared on day 4 PT but needed to be treated with Mefloquine on day 8 PT due to a low platelet count. The other animals that had not been cleared by day 6 PT were treated with Mefloquine. […] P. vivax is known to be very drug resistant to antifolates. (h). Presumptive Causal Prophylactic Test against P. cynomolgi in Rhesus monkey: Protocol: […]

SMILES strings stand for the structures. Converted amounts (≈) assume the structure as drawn.

Turning to `CCOC(=O)Nc1nc(NC(=O)OCC)c2c(ccc3c2ccn3Cc2ccccc2C(F)(F)F)n1` [Compound 2b], in data set [1] (P. falciparum D-6 clone), the “IC50 D-6” value is given as 7.9727 ng/mL (≈ 15.9 nM). Further, in data set [2], the CBC parameters entry is “remained within normal ranges”; the body weight change entry is given as “No significant changes in body weight”; the “adverse effects (anorexia, vomiting, diarrhea, behavior)” value is on record as “No adverse effects”; the “behavior, weight or blood chemistry changes” value is “no behavior, weight or blood chemistry changes”.

Turning to `CC(=O)N(C(C)=O)c1nc(N(C(C)=O)C(C)=O)c2c(ccc3c2ccn3Cc2ccccc2C(F)(F)F)n1` [Compound 3e, 1,3-Bis(diacetylamino)-7-(2-trifluoromethyl)benzyl-7H-pyrrolo[3,2-f]quinazoline], in data set [1] (Plasmodium falciparum, read-out: IC50 D-6), the IC50 was determined as 0.0236 ng/mL (≈ 0.0449 nM). Also, in data set [2], the CBC parameters entry is recorded as “remained within normal ranges”; the body weight change entry was “No significant changes in body weight”; the “adverse effects (anorexia, vomiting, diarrhea, behavior)” value is on record as “No adverse effects”; the “behavior, weight or blood chemistry changes” value is “no behavior, weight or blood chemistry changes”.
